# Laboratory results as given in patent US20070142321A1, “METHOD FOR PREVENTING GROWTH OF BACTERIA ON CONTACT LENSES WITH EYE DROPS” (priority 2005, published 2007).
# How the values were obtained:
# microbes [1] = test: Amount of Alexidine required to disinfect the solutions; format: cell-based; settings: in Formulae 1-4
# Method: (§1) For the purposes of this patent application a disinfecting amount is an amount of an antimicrobial agent that passes the Stand Alone Disinfecting Efficacy Test by the Food and Drug Administration (510k) of the United States of America in a minimum of three out of four test samples in a test solution that is diluted with 0.9 wt. % saline solution in a 1:1 ratio of test solution to saline solution.
# (§2) The FDA (510 (k)) Guidance Document for contact lens products defines procedures that measure the extend of viability loss of representative microorganisms at established time intervals to determine the extend of viability loss. FDA (510 (k)) Guidance Documents recommended test organisms for both disinfecting stand-alone and preservative efficacy testing are composed of three bacteria (Pseudomonas aeruginosa ATCC 9027, Stapylococcus aureus ATCC 6538, and Serratia marcescens ATCC 13880) and two fungi (Candida albicans ATCC 10231, and Fusarium solani ATCC 36031). The performance requirement biocidal stand alone testing calls for 3 log reduction for bacterial cells and 1 log reduction for each fungi. At day 28, after the rechallenge on day 14, the performance requirement for preservative efficacy testing calls for reduction of 3.0 logs per bacteria and ±0.5 for fungi.
# (§3) With Alexidine, it has been discovered that approximately 1 ppm is required to disinfect each of the solutions above. […]
# microbes [2] = test: Disinfection of a contact lens removed from the eye and treated by a disinfecting/cleaning regimen; format: cell-based; settings: Alexidine at 4.5 ppm; lens removed from the eye and treated with solution
# Method: as §1, §2, §3
structure (smiles),measurement,setting,value
"CCCCC(CC)CNC(=N)NC(=N)NCCCCCCNC(=N)NC(=N)NCC(CC)CCCC (centres unmarked) [Alexidine, 1,1′-hexamethylenebis[5-(2-ethylhexyl)biguanide]]",amount of Alexidine required to disinfect each of the solutions,microbes [1],approximately 1 ppm
same,antimicrobial activity to disinfect a contact lens,microbes [2],sufficient antimicrobial activity to disinfect a contact lens
